What all share (format): cell-based
The test system of assay [1] is P. fluorescens strain ATCC 13525. Nature of the assay: Improved biofilm dispersion screen (already-formed biofilms, crystal violet). As to conditions: Pseudomonas fluorescens, ATCC13525, 20 mM NaOH step, positive = dispersion, negative = enhancement of pre-existing biofilm, quadruplicate, read-out: average percentage reduction of biofilm relative to the two control values (dispersion). The essentials: (§1)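 Biofilms pre-grown 24 h without compound, then given fresh medium with compound at 390 μM for another 22–26 h. NaOH wash in PBS (0 mM S. epidermidis, 20 mM P. fluorescens, 30 mM P. aeruginosa; 30 min, room temperature), then crystal violet staining. Percent biofilm reduction calculated against t0 and DMSO t24 controls, quadruplicates; negative values mean enhancement.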

For assay [2], the system named is S. epidermidis strain ATCC 35984. Described as above. The following applies: Staphylococcus epidermidis, ATCC35984, no NaOH, positive = dispersion, negative = enhancement of pre-existing biofilm, quadruplicate, read-out: average percentage reduction of biofilm relative to the two control values (dispersion). The essentials:
as §1

For assay [3], the system named is P. aeruginosa strain PAO1. The description is as above. The following applies: Pseudomonas aeruginosa, 30 mM NaOH step, positive = dispersion, negative = enhancement of pre-existing biofilm, quadruplicate, read-out: average percentage reduction of biofilm relative to the two control values (dispersion). The essentials: as §1
For assay [4], the system named is P. aeruginosa strain PAO1. Description: Biofilm prevention screen (96-well microplate, crystal violet). As to conditions: Pseudomonas aeruginosa, positive = prevention, negative = enhancement of biofilm formation, quadruplicate, read-out: average percentage reduction of biofilm formed relative to DMSO controls. The essentials: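 Three strains in 96-well round-bottom plates, compound at 250–500 μM, 160 μM or 32 μM, 16–26 h at 200 rpm (30° C Pseudomonas, 37° C staphylococcus). Staining: CV 45 min at room temperature, ethanol extraction, A586. Reported as % biofilm reduction vs DMSO, n = 4.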

For the molecule `CCCCCCCCCCCCNC(=O)[C@@H]1CCCN1` [Compound 168], the inhibition at 390 µM is -3% in assay [1], 78% in assay [2], 17% in assay [3] and 91% in assay [4]. Moreover, the inhibition at 32 µM in assay [4] stood at 3%. Besides, the inhibition at 160 µM in assay [4] is 53%.

Consider `CCCCCCCCCCNC(=O)[C@@H]1CCCN1` [Compound 32, L-proline n-decyl amide], for which the inhibition at 390 µM in assay [1] is 0%; in assay [2] it was 72%; in assay [3], -107%; in assay [4] it was 22%. In addition, the inhibition at 32 µM in assay [4] is -15%. In assay [4], the inhibition at 160 µM is -43%.

`O=C(NCCCCCCCCCCCCNC(=O)[C@H]1CCCN1)[C@H]1CCCN1` [Compound 226, D-proline 1,12-diaminododecane bisamide]: the inhibition at 390 µM in assay [1] was found to be 32%; in assay [2], 26%; in assay [3], 7%; in assay [4], 95%. Further, the inhibition at 32 µM in assay [4] was -23%. Further, in assay [4], the inhibition at 160 µM was 96%.
